Here are results for 13 molecules from US4636518A, “Imidazole derivatives and pharmaceutical compositions” (G. D. Searle & Co., priority 1981, dated 1987).

Test [1] relates to thromboxane production in human platelet rich plasma (TxB2). Nature of the test: Thromboxane production in human platelet rich plasma (TxB2 radioimmunoassay, collagen stimulated). It counts as cell-based. Particulars: read-out: ACTIVITY (IC50 × 10^6 M). From the text: The antithrombotic activity of the compounds of the invention has been determined by their ability to inhibit production of thromboxane A2 (TxA2) by blood platelets the synthesis of which is an important factor in the aggregation of platelets and the initiation of thrombosis (R. J. Gryglewski, CRC Crit. Rev. Biochem., (1980), 7(4), 291).
The compounds of the invention have been tested by the following in vitro radioimmunoassays for their ability to inhibit thromboxane and affect prostacyclin production.
Thromboxane production in Human Platelet Rich Plasma
(§1) (a) Platelet rich plasma (prp) preparation
(§2) Human venous blood was […] from healthy male donors, who had denied any medication during the previous 14 days. Nine volumes of blood were mixed with one volume of 3.24% trisodium citrate. The citrated blood was centrifuged at 160 g for 10 mins. at 22° C. to obtain platelet rich plasma (prp). The platelets were then counted on a Coulter counter, and the platelet count was adjusted to 200,000 per μl with plasma.
(b) Thromboxane generation
The prp was then dispensed as aliquots into micro-Eppendorf tubes, maintained at 37° C. in a dry bath. The compounds, dissolved either in saline, ethanol, or dimethylsulphoxide, were added in duplicate to the prp aliquots to produce final concentrations in the range of 0.1-30 μg/ml. When ethanol and DMSO were used as the vehicle, triplicate controls containing the same percentage of vehicle as the test compounds were made. The final concentration of organic solvent was never more than 0.1%, which in previous experiments had no effect on TxB2 generation.
Following a 10 min. incubation with test compounds or vehicle, collagen was added to produce a final concentration of 20 μg/ml. The tubes were then whirly-mixed for 15 seconds and replaced in the dry bath for a further 10 minutes, controls received saline instead of collagen. The reaction was then stopped by rapid centrifugation (15000 g for 3 mins). The plasma was removed and frozen at -29° C. until assayed.
(c) Assay of Thromboxane B2
Briefly, 100 μl aliquots of the following, in 50 mM phosphate buffer+0.1% gelatin+thimerosal (pH 6.8) were incubated together for 16 hours at 4° C.: thromboxane TxB2 (plasma extract or standards 50 to 10,000 pg/ml), [^3 H]--TxB2 (approximately 15,000 dpm) and anti-TxB2 antiserum (0.5 μg/100 μl). The free and protein bound [^3 H]--TxB2 were separated by adsorption onto activated charcoal followed by centrifugation. […] of the supernatant was added to an aqueous scintillation fluid, and the radioactivity present was counted in a liquid scintillation counter. The binding of [^3 H]--TxB2 in the absence of added TxB2 was approximately 55%. The least amount of TxB2 to be detected accurately in the plasma was 50 pg/ml. Cross reactivity with other prostaglandins is less than 0.005% except PGD2 which is 1%.
Thus plasma samples were assayed to give a rough approximation of TxB2 content. The plasma was then appropriately diluted and assayed in duplicate to give accurate values.
The amount of TxB2 generated by the collagen was calculated by subtracting mean values obtained for the saline stimulated platelets from the mean values obtained from the collagen stimulated platelets. Then the amount of TxB2 generated in the presence of each concentration of compound was expressed as a % control and dose response curves were then constructed to determine the concentration of compound which produced a 50% inhibition.

For test [2], the system named is arachidonic acid induced aggregation of human prp. Nature of the test: Inhibition of platelet aggregation in vitro, arachidonic acid induced (turbidometric). To be noted: for IC50: Platelet, human prp, arachidonic acid, read-out: I.C.50 (μM) vs ARACHIDONIC ACID; for inhibition of arachidonic acid induced aggregation of human prp: result in words. In kind it is cell-based. As for the experimental part:
as §1, §2
(§3) Inhibition of Platelet Aggregation in vitro
In addition to the above tests, platelet aggregation in citrated prop (prepared as above) against a variety of aggregating agents was measured turbidometrically in a Payton Dual Channel Aggregometer (method as described in G.V.R. Born, Nature, (1962), 194, 927).

Test [3] concerns platelet aggregation in the male retired breeder rat. Nature of the test: Antiplatelet activity in the male retired breeder rat model (platelet aggregate ratio). It counts as in vivo. To be noted: read-out: EX50 (3h post oral administration). The protocol: The retired breeder male rat may be utilized any time from 24 hours to 6 months after receipt without prior fasting or manipulation. […] The test (as described in R. N. Saunders, T. S. Burns, M. R. Selzer and E. R. Waskawic, Lab. Animal Sci., (1977), 27, 757-761) consists of the oral administration of the investigative compound either dissolved in or suspended in propylene glycol 400 at 20 mg/kg to four retired breeder male rats (40 mg of compound required). Three hours from the time of administration, the rats are ether anaesthetized, the abdominal cavity exposed and one ml of blood is withdrawn into each of two syringes from the vena cava. The first syringe contains four ml of buffered citrate/formalin solution and the second syringe contains four ml of buffered citrate alone. The syringes are inverted, held at room temperature for 15 minutes and the contents are centrifuged at 170 g for 14 minutes. Platelet counts are obtained on the undiluted solutions by means of a hemacytometer under 430×phase-contrast microscopy. The platelet aggregate ratio is obtained by dividing the platelet count of the first syringe by that of the second syringe. A ratio of 1.0 would indicate that no platelet aggregates are present whereas ratios below 1.0 indicate the presence and degree of platelet aggregate formation which has occurred.

The subject of test [4] is collagen induced aggregation of human prp. Nature of the test: Inhibition of platelet aggregation in vitro, collagen induced (turbidometric). It counts as cell-based. Particulars: for IC50: Platelet, human prp, collagen, read-out: I.C.50 (μM) vs COLLAGEN; for inhibition of collagen induced aggregation of human prp: result in words. The protocol: as §1
Human venous blood was […] from healthy male donors, who had denied any medication during the previous 14 days. […] The citrated blood was centrifuged at 160 g for 10 mins. at 22° C. to obtain platelet rich plasma (prp). The platelets were then counted on a Coulter counter, and the platelet count was adjusted to 200,000 per μl with plasma.
as §3

For test [5], the system named is aggregation of human platelet rich-plasma. Nature of the test: Aggregation of human platelet rich plasma (aggregating agent not stated). Particulars: in vitro, result in words. It counts as cell-based.
Test [6] relates to PGI2 synthesis in cultured bovine arterial endothelial cells. Nature of the test: Prostacyclin production in cultured aortic endothelial cells (6-keto PGF1α radioimmunoassay). In kind it is cell-based. Particulars: for Net PGI2 synthesis: control 120. From the text: Prostacyclin Production in Cultured Aortic Endothelial Cells
Bovine aortic arch tissue was obtained from a local abattoir, and transported to the laboratory on ice. Arterial endothelial cells were obtained from the washed (phosphate buffered saline) aortic arch tissue by gentle scraping of the intima, within two hours of sacrifice. Cell suspensions were washed by centrifugation, resuspended, and propagated in Roswell Park Memorial Institute (RPMI) 1640 medium (Moore, G. E., J.A.M.A., (1967), 199, 519) 1640 medium+20% foetal calf serum (FCS)+antibiotics (1-2 doublings). The cells were then trypsinised, cloned by limiting dilution, selected colonies grown to confluence (3-4 passages), and stored in liquid nitrogen. When required, batches of cells were removed from store, resuscitated, and propagated in RPMI medium+10% FCS+antibiotics (passaged 6-15 times). At trypsinisation, representative cells from each passage were transferred to multiwell plates (1×10^5 cells/well) and incubated for 3 days (final count 3.5×10^5 cells/well).
The medium in each well of the plate was exchanged for serum and antibiotic free RPMI 1640, and a time 0 sample (100 μl) taken. Drugs or vehicle were next added as required, and a further sample (800 μl) taken from each well after a 60 minute incubation at 37° C. with gentle shaking. Prostacyclin synthesis and release into the medium over this period was estimated using an RIA technique for 6-keto PGF1α, the stable metabolite of PGI2 (New England Nuclear 6-keto PGF1α RIA kit, Catalogue No. NEK 008).
(b) Assay of 6-keto PGF1α
Briefly, 100 μl aliquots in 50 mM phosphate buffer+0.1% gelatin+0.01% thimerosal (pH 6.8) of the following were incubated together for 16 hours at 4° C.: 6-keto PGF1α (incubation medium extract or standards 10-1000 pg/0.1 ml), [^3 H]-6-keto PGF1α (approximately 15000 dpm) anti-6-keto PGF1α antiserum. The […] and protein bound [^3 H]-6-keto PGF1α were separated by adsorption onto activated charcoal followed by centrifugation. 850 μl of the supernatant was added to an aqueous scintillation fluid, and the radioactivity present counted in a liquid scintillation counter. The binding of [^3 H]-6-keto PGF1α in the absence of added 6-keto PGF1α was approximately 40%. The least amount of 6-keto PGF1α to be detected accurately in the samples was 100 pg/ml. Cross reactivity with other prostaglandins was less than 0.3% except PGE2 (2%) and PGF2α (2.7%).

The mark [7] stands for this setting: male breeder rat, oral, 3h post administration.

Read-outs that look alike come from different tables or passages of the source.

Turning to `COc1ccc(COCC(Cn2ccnc2)OCc2cccc(OC)c2)cc1` (centres unmarked) [Example 15], the IC50 in test [1] came to 14 µM.
Turning to `COc1ccc(COCC(Cn2ccnc2)OCc2ccc3c(c2)OCO3)cc1` (centres unmarked) [Example 20], in test [2], the IC50 worked out at 24 µM and the “inhibition of arachidonic acid induced aggregation of human prp” value was “clearly more active than aspirin, dipyridamole, or sulphinpyrazone”. Further, in test [3] (setting [7]), the ED50 turned out to be 1.8 mg/kg. In addition, in test [4], the IC50 is 89 µM and the “inhibition of collagen induced aggregation of human prp” value is reported as “clearly more active than aspirin, dipyridamole, or sulphinpyrazone”. For the same molecule, in test [1], the IC50 is 4 µM.
For `COc1ccc(COCC(Cn2ccnc2)OCc2ccc(Cl)cc2)cc1` (centres unmarked) [Example 4], the IC50 in test [1] was found to be 23 µM.
Same read-out and setting: next, `c1cncc(COC(COCc2ccc3c(c2)OCO3)Cn2ccnc2)c1` (centres unmarked) [Example 34]: 13 µM.
With `COc1ccc(COCC(Cn2ccnc2)OCc2ccc(OC)cc2)cc1` (centres unmarked) [Example 1, 1-[2-[(4-methoxyphenyl)methoxy]-3-[(4-methoxyphenyl)methoxy]propyl]-1H-imidazole], the “aggregation of human platelet rich-plasma” value in test [5] was “the aggregation of human platelet rich-plasma”. Also, the “Net PGI2 synthesis” value in test [6] (26 µM) is 125 pg 6-keto PGF1 α/60 min/3.5 × 10^5; in test [6] (7.8 μm), 130 pg 6-keto PGF1 α/60 min/3.5 × 10^5; in test [6] (26.0 μm), 106 pg 6-keto PGF1 α/60 min/3.5 × 10^5; in test [6] (78.0 μm), 135 pg 6-keto PGF1 α/60 min/3.5 × 10^5. Also, in test [6] (Bos taurus, Endothelial cell, 1 h, 2.6 μm, 60 min, read-out: % Change (PGI2 synthesis)), the activation at 2.6 µM turned out to be 4%. Moreover, in test [6] (Bos taurus, Endothelial cell, 1 h, 7.8 μm, 60 min, read-out: % Change (PGI2 synthesis)), the activation at 7.8 µM amounted to 8%. Also, in test [6] (Bos taurus, Endothelial cell, 1 h, 26.0 μm, 60 min, read-out: % Change (PGI2 synthesis)), the activation at 26 µM is -12%. For the same molecule, in test [6] (Bos taurus, Endothelial cell, 1 h, 78.0 μm, 60 min, read-out: % Change (PGI2 synthesis)), the activation at 78 µM is 12%. In addition, the “effect on production of prostacyclin” value in test [6] (at concentrations equivalent to those which inhibit TxA2 formation, result in words) is “not to significantly effect production of prostacyclin”. In test [6] (at concentrations substantially in excess of those which inhibit platelet thromboxane synthetase, 1 hour, result in words), the “effect on basal PGI2 synthesis” value is on record as “no significant effect on basal PGI2 synthesis”. Further, the figures for the IC50 in test [2], in test [4] and in test [1] were 31 µM, 103 µM and 12 µM, respectively. In addition, in test [2], the “inhibition of arachidonic acid induced aggregation of human prp” value was “clearly more active than aspirin, dipyridamole, or sulphinpyrazone”. In test [3] (setting [7]), the ED50 turned out to be 0.49 mg/kg. The “inhibition of collagen induced aggregation of human prp” value in test [4] is recorded as “clearly more active than aspirin, dipyridamole, or sulphinpyrazone”.
Regarding `COc1ccc(COCC(Cn2ccnc2)OCc2ccsc2)cc1` (centres unmarked) [Example 30], the IC50 in test [1] worked out at 20 µM.
Same read-out and setting: next, `COc1ccc(COCC(Cn2ccnc2)OCc2ccccc2)cc1` (centres unmarked) [Example 2]: 11 µM; `COc1ccc(COCC(Cn2ccnc2)OCc2ccccn2)cc1` (centres unmarked) [Example 28]: 10 µM.
Turning to `CC(=O)Oc1ccccc1C(=O)O` [aspirin, reference compound], in test [2], the IC50 worked out at 56 µM. In addition, the ED50 in test [3] (Rattus norvegicus, po, 3 h) turned out to be 7.7 mg/kg.
For `O=C1C(CC[S+]([O-])c2ccccc2)C(=O)N(c2ccccc2)N1c1ccccc1` (centres unmarked) [sulphinpyrazone, reference compound], the ED50 in test [3] (setting [7]) amounted to 4.1 mg/kg. Further, in test [4], the IC50 was determined as 173 µM.
On to `OCCN(CCO)c1nc(N2CCCCC2)c2nc(N(CCO)CCO)nc(N3CCCCC3)c2n1` [dipyridamole, reference compound], for which the IC50 in test [2] and in test [4] was more than 200 µM in each case. Also, the ED50 in test [3] (setting [7]) was determined as 1.8 mg/kg.
`COc1ccc(COCC(Cn2ccnc2)OCc2ccc(C#N)cc2)cc1` (centres unmarked) [Example 24]: the IC50 in test [1] was 12 µM.
Same read-out and setting: the figure for `COc1ccc(COC(CSCc2ccc(OC)cc2)Cn2ccnc2)cc1` (centres unmarked) [Example 35] is 22 µM.
